Experimental data taken from PubChem BioAssay (NCI).
Where “and” joins values, the source holds several entries; their conditions need not be identical. Equal entries are not always repeated.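 Interpolation was linear, between the two tested concentrations surrounding the appropriate level; five concentrations were tested over 48 hours in 96-well plates. GI50 = concentration required for 50% inhibition of growth. Definition used: TGI = concentration required for complete inhibition of growth.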

Assays:
Experiment in all cases: DTP human tumour cell line panel, 48 h
786-0 renal = system: 786-0 renal
EKVX NSCLC = system: EKVX NSCLC
K-562 leukemia = system: K-562 leukemia
MALME-3M melanoma = system: MALME-3M melanoma
NCI-H23 lung = system: NCI-H23 lung
NCI/ADR-RES ovarian = system: NCI/ADR-RES ovarian
SK-MEL-2 melanoma = system: SK-MEL-2 melanoma
SK-MEL-5 melanoma = system: SK-MEL-5 melanoma
T-47D breast = system: T-47D breast
UO-31 renal = system: UO-31 renal

Row | SMILES | GI50 (786-0 renal) | TGI (786-0 renal) | GI50 (EKVX NSCLC) | TGI (EKVX NSCLC) | GI50 (K-562 leukemia) | TGI (K-562 leukemia) | GI50 (MALME-3M melanoma) | TGI (MALME-3M melanoma) | GI50 (NCI-H23 lung) | TGI (NCI-H23 lung) | GI50 (NCI/ADR-RES ovarian) | TGI (NCI/ADR-RES ovarian) | GI50 (SK-MEL-2 melanoma) | TGI (SK-MEL-2 melanoma) | GI50 (SK-MEL-5 melanoma) | TGI (SK-MEL-5 melanoma) | GI50 (T-47D breast) | TGI (T-47D breast) | GI50 (UO-31 renal) | TGI (UO-31 renal)
1 | N#CC1=C(N)NC(=S)NC12Nc1ccccc1O2 (centres undefined) | 30.1 µM | > 100 µM | 62.3 µM | > 100 µM | 13700 nM | > 100 µM | > 100 µM | > 100 µM | 20.4 µM | 69.7 µM | 20.5 µM | 69.6 µM | 20.9 µM | 53.4 µM | 27.1 µM | 85.4 µM | 41.5 µM | > 100 µM | 25.4 µM | > 100 µM
2 | CC1(C)NCCC[C@]2(C)[C@H]3C=CC4=C5C[C@](C)(CO)CC[C@]5(C)CC[C@@]4(C)[C@]3(C)CC[C@@H]12 | 2.66 µM | 8.59 µM | 2.77 µM | 8.27 µM | 3180 nM | 10.8 µM | 2.64 µM | 8.01 µM | 3.15 µM | 12.5 µM | 2.02 µM | 4.52 µM | 3.31 µM | 12.2 µM | 2.14 µM | 4.94 µM | 5.38 µM | 20.9 µM | 3.59 µM | 15.7 µM
3 | C=C1C[C@@H]2C/C=C/C(=O)C/C(C)=C\C=C\C(=O)O[C@H](C=O)C/C(C)=C/[C@H](C1)O2 | 0.783 µM | 18.3 µM | 3.68 µM | 21.2 µM | 160 nM | > 40.2 µM | 13.6 µM | 38.4 µM | 5.16 µM | 23.1 µM | 2.58 µM | > 100 µM | 6.1 µM | 34.9 µM | 2.62 µM | 16.6 µM | 1.42 µM | 54.3 µM | 3.33 µM | 56.4 µM
4 | COc1ccc(/C=C\c2cc(OC)c(OC)c(OC)c2)cc1OC(=O)C(N)CCC(=O)O (centres undefined) | 0.00706 µM | – | – | > 100 µM | 0.311 nM and 0.0702 nM | – | 0.00136 µM | – | – | 0.000785 µM and 0.0056 µM | 0.000317 µM | 0.608 µM | 7.35e-05 µM | > 100 µM | – | – | > 100 µM | > 100 µM | 0.000436 µM and < 0.0001 µM | –
5 | c1cc2c(cc1C(N1CCNCC1)N1CCNCC1)OCO2 | – | > 100 µM | – | > 100 µM | – | 5.6 µM | – | > 100 µM | – | > 100 µM | – | > 100 µM | – | > 100 µM | – | > 100 µM | – | > 100 µM | – | > 100 µM
6 | C/C=C(\C)C(=O)N[C@H]1[C@@H](OC(C)=O)C[C@]2(C)C3CC[C@@]4(C)C(CC[C@@H]4C(C)N(C)C)C3CCC2[C@H]1O (some centres undefined) | 5.22 µM | 16.3 µM | 5.63 µM | 31.4 µM | 1320 nM | 5.02 µM | 2.03 µM | 6.43 µM | 11.7 µM | 28.2 µM | 9.79 µM | 30.3 µM | 2.3 µM | 6.38 µM | 1.6 µM | 3.77 µM | 2.06 µM | 10.3 µM | 3.16 µM | 15.2 µM
7 | C=C1CC[C@@]2(C#N)[C@H]3[C@H](CC[C@@H]2C)[C@@H](C)C[C@@H](CC(C)(C)C#N)[C@H]13 | 2.33 µM | 23.3 µM | 1.12 µM | 45.7 µM | 460 nM | > 100 µM | 5.23 µM | 40.8 µM | 1.06 µM | 32.6 µM | 2.87 µM | 24.6 µM | 6.67 µM | 40.2 µM | 1.54 µM | 12.9 µM | 2.24 µM | 10.9 µM | 0.363 µM | 19.3 µM
8 | O=[N+]([O-])c1ccc(-c2nc(N(CCO)CCO)c3ccccc3n2)o1 | 0.231 µM | 0.621 µM | 0.464 µM | 4.31 µM | 337 nM | > 20.6 µM | 0.155 µM | 0.373 µM | 0.1 µM | 0.314 µM | 0.956 µM | 7.57 µM | 0.158 µM | 0.361 µM | 0.112 µM | 0.244 µM | 0.319 µM | 5.02 µM | 0.213 µM | 0.714 µM
9 | Fc1ccc(Oc2nccc(-c3c(-c4ccc(F)cc4)ncn3C3CCNCC3)n2)cc1 | > 25 µM | > 25 µM | > 25 µM | > 25 µM | > 25000 nM | > 25 µM | > 25 µM | > 25 µM | – | – | > 25 µM | > 25 µM | > 25 µM | > 25 µM | > 25 µM | > 25 µM | > 18 µM | > 25 µM | 10.9 µM | > 25 µM
10 | FC(F)(F)c1cccc(COCCN2CCN(Cc3cccc(C(F)(F)F)c3)CC2)c1 | – | 29.5 µM | – | 23.4 µM | – | > 100 µM | – | 22.5 µM | – | 41.1 µM | – | 39.1 µM | – | – | – | 29.4 µM | – | 39.1 µM | – | 24.9 µM
